# Data taken from patent US7951359B2, “Compositions and methods for therapy or prevention of chemotherapy-induced neuropathy” (Merck Serono SA, priority 2004, dated 2011).
# Tests used:
# [1] = test system: vincristine induced neuropathy; assay: Hot plate test in vincristine-treated rats; type: in vivo, rat; settings: 4-MC 10 μg/kg IP daily
# Procedure: (§1) The rat was placed inside a glass cylinder of 17 cm height and 21 cm diameter on a heating-plate maintained at 52° C. (Medite OTS 40, Microm, Francheville, Rhône, France). The animal behavior was observed, particularly the licking of a foot and the adjusted leap. The latency before licking a foot or before jumping to escape the heat (adjusted leap) was recorded. The time needed to feel the thermal pain is related to the thermal sensitivity and tends to increase when thermal sensitivity is altered.
# [2] = test system: vincristine induced neuropathy; assay: Electromyography (EMG) in vincristine-treated rats; type: in vivo, rat; settings: 4-MC 10 μg/kg IP daily with vincristine
# Procedure: In parallel to behavioral tests, electrophysiological test as described in Example 17, were carried out to evaluate fiber/nerve function in vincristine-administered rats vis-à-vis rats co-administrated with IL-6.
# (§2) Electrophysiological recordings were performed using a Neuromatic 2000M electromyograph (EMG) (Dantec, Les Ulis, France). Rats were anaesthetized by IP injection of 60 mg/kg ketamine chlorhydrate (Imalgene 500®, Rhône Merieux, Lyon, France). The normal body temperature was maintained around […] with a heating lamp and verified using a contact thermometer (Quick, Bioblock Scientific, Illkirch, France) placed on the tail surface.
# (§3) Compound muscle action potential (CMAP) of M wave signal (or electrically evoked muscle potential) was recorded in the gastrocnemius muscle after stimulation of the sciatic nerve. M wave reflects the current developed during the action potential of muscle fibers. A reference electrode and an active needle were placed in the hind paw. A ground needle was inserted on the lower back of the rat. Sciatic nerve was stimulated with a single 0.2 ms pulse at supramaximal intensity. The […] of the motor wave was recorded and expressed in ms.
# (§4) Sensitive nerve conduction velocity (SNCV) was also recorded. The tail skin electrodes were placed as follows: a reference needle inserted at the base of the tail and an anode needle placed 30 mm away from the reference needle toward the extremity of the tail. A ground needle electrode was inserted between the anode and reference needles. The caudal nerve was stimulated with a series of 20 pulses (for 0.2 ms) at an intensity of 12.8 mA. The velocity was expressed in m/s.
# (§5) H-wave reflex was recorded in the hind footpad muscle after stimulation of the sciatic nerve. A reference electrode and a ground needle were placed on the lower back of the rat. The sciatic nerve was stimulated with a single 0.2 ms pulse at supramaximal intensity. The amplitude (mV) of H wave and the proportion of animal lacking H wave response were the parameters studied.
# [3] = test system: vincristine induced neuropathy; assay: Morphometric analysis of sciatic nerve in vincristine-treated rats; type: in vivo, rat; settings: 4-MC 10 μg/kg IP daily
# Procedure: Histomorphometric analyses were carried out as described in Example 18 at the completion of the experiments, to explore morphologic changes occurring in fiber and axon diameter and myelin thickness in rats treated with vincristine and in rats co-administrated with IL-6.
# With vincristine, morphometric analysis was performed 2 week after the end of vincristine administration on 3 animals per group. The animals were anesthetized by IP injection of 100 mg/kg Imalgène 500®. A 5 mm segment of sciatic nerve was excised, fixed overnight with 4% glutaraldehyde (Sigma, L'Isle d'Abeau-Chesnes, France) in phosphate buffered saline (PBS) (pH=7.4) and maintained in 30% sucrose and stored at 4° C. until further processing. At the time of use, the nerve sample was post-fixed in 1% osmium tetroxide (Sigma, L'Isle d'Abeau-Chesnes, France) in PBS for 2 h, dehydrated in serial alcohol solution, and embedded in Epon. Embedded tissues were then placed at 70° C. during 3 days to allow polymerization of the tissue wax. Cross sections of 1.5 μm thick were performed and they were stained with a 1% toluidine blue solution (Sigma, L'Isle d'Abeau-Chesnes, France) for 2 min, dehydrated and mounted on Eukitt. Twelve sections per sample were examined using an optical microscope (Nikon, Tokyo, Japan) and analyzed using, a semi-automated digital image analysis software (Biocom, France). The fiber diameter (a), axon diameter (b), and myelin thickness (c) were measured as illustrated below.
# [4] = test system: cisplatin induced neuropathy; assay: Hot plate test in cisplatin-treated rats, co-administration; type: in vivo, rat; settings: 4-MC 10 μg/kg IP daily; 3 weeks
# Procedure: as §1
# [5] = test system: cisplatin induced neuropathy; type: in vivo, rat; settings: 4-MC 10 μg/kg IP daily
# Procedure: Electrophysiological monitoring in cisplatin-induced neuropathy model was carried out as described in Example 17. The objective was to assess the effect of co-administration with IL-6 in cisplatin-induced loss of fiber/nerve function.
# as §2, §3, §4, §5
# [6] = test system: cisplatin induced neuropathy; assay: Morphometric analysis of sciatic nerve in cisplatin-treated rats, co-administration; type: in vivo, rat; settings: 4-MC 10 μg/kg IP daily
# Procedure: The total number of fibers per nerve section was obtained from 3 randomized slices of each sample. The counting was performed on 2 selected fields per slice.
# [7] = test system: cisplatin induced neuropathy; assay: Hot plate test, therapeutic treatment of established cisplatin neuropathy; type: in vivo, rat; settings: 4-MC 10 μg/kg IP daily from day 23; after 2 weeks; p≦0.05
# [8] = test system: cisplatin induced neuropathy; type: in vivo, rat
# Procedure: The drug was diluted in 0.9% sterile aqueous solution of sodium chloride.
# 4-MC was diluted in 0.9% sterile aqueous solution of sodium chloride and injected daily via IP route from day 23 to the end of the experiment.
# Electrophysiological tests described in Example 17, were carried out in parallel to the behavioral tests (described in the preceding example) in cisplatin-established neuropathy model. The objective was to assess the therapeutic effect of IL-6 in cisplatin-induced loss of fiber/nerve function.
# as §2, §4, §5
# [9] = test system: cisplatin induced neuropathy; assay: Morphometric analysis, therapeutic treatment of established cisplatin neuropathy; type: in vivo, rat; settings: 4-MC 10 μg/kg IP
# Description: The number of degenerated and non-degenerated fibers on the entire surface of each nerve section was counted by an operator in a blinded fashion. All the results (except the data expressed as ratio value) were reported as percentage of changes in reference to the control value.
# [10] = test system: taxol induced neuropathy; assay: Electrophysiological monitoring in taxol induced neuropathy, co-administration; type: in vivo, rat
# Procedure: The aim of the following experiment was to investigate the potential neuroprotective effect of IL6 in an additional model of chemotherapeutic induced neuropathy mediated by taxol. The potential preventive effect of IL-6 co-administration was tested. Administration of IL-6 was initiated together with taxol administration. The doses of IL-6 of 3 and 10 μg/kg were administered daily or in the case 10 μg/kg also only 3 times per week.
# Females 10 weeks old aged Dark Agouti rats were used, 12 animals per group were included as following
# The taxol was diluted in a solution of cremophor/ethanol/dextrose 5% and administered twice a week during 4 weeks.
# 4-MC and test compounds treatment was initiated the first day of intoxication and was stopped at the end of the study.
# The study was performed on 8 weeks (1 week for the baseline, 4 weeks for the taxol intoxication and 3 weeks of recovery).
# Control, taxol, and taxol-IL-6 co-administered group of rats at the indicated doses were subjected to electrophysiological monitoring to assess the effect of IL-6 in taxol-induced loss of fiber/nerve function.
# as §4
# H-wave reflex was recorded in the hind footpad muscle after stimulation of the sciatic nerve. […] The sciatic nerve was stimulated with a single 0.2 ms pulse at supramaximal intensity. The amplitude (mV) of H wave and the proportion of animal lacking H wave response were the parameters studied.
# [11] = test system: breast (MCF7) tumor cell line; assay: Cell survival by acid phosphatase activity assay, MCF7; type: cell-based, human; settings: 4 days
# Procedure: (§6) The human lung (SK-MES1) and breast (MCF7) tumor cell lines were obtained from ATCC. The cell lines were maintained in Dulbecco's MEM medium (Gibco; Invitrogen, Cergy-Pontoise, France, ref. 41965039) supplemented with 1% antibiotic/antimicotic mixture solution (Gibco, ref. 15240062), and 10% heat-inactivated foetal bovine serum (Gibco, ref. F7524, batch 92K3387). The cells were amplified in Nunc tissue culture flasks (80 cm2) in a humidified incubator at 37° C. with 5% CO2 in 95% air. Cultures were sub-cultured twice a week.
# (§7) The enzymatic activity has been proven to be proportional to the number of living cells (Ueda et al.; 1994).
# (§8) Three days after the last replication, tumor cells were seeded in 96 well-plates (TPP, VWR International, Fontenay-sous-bois, France) at a density of 1,500 cells (MCF7 line) or 3,000 cells (SK-MES1 line) per well, in a total volume of 100 μl/well and incubated overnight in a humidified incubator at 37° C. with 5% CO2 in 95% air. […] IL-6 (in buffer solution at 1.8 mg/ml, PH: 7) was immediately added at concentrations of 0, 3, 12, 50 or 200 ng/ml.
# (§9) Four days after the initiation of the intoxication, acid phosphatase activity (Example 21) in each cell culture was assessed.
# (§10) After removal of the culture medium, cells were rinsed with phosphate-buffered saline (PBS, Gibco, ref. 14190-094) and further incubated for 90 min at 37° C. in 100 μl of buffer containing 0.1 mol/l sodium acetate (pH 5.5), 0.1% Triton X100 (Sigma, ref. T9284) and 10 mmol/l p-nitrophenyl phosphate (Sigma, ref. N9389). Reaction was stopped by addition of 10 μl of 1 mol/l sodium hydroxide aqueous solution (Laboratoire de Produit Chimiques de la Robertsau, Strasbourg, France; ref. 28.252.293). Absorbance of the colored solution was measured at 405 nm in a microplate reader (Labsystems Multiskan Bichromatic, EST-LAB, Strasbourg, France).
# (§11) The results were expressed as percentage of optical density of the control cell cultures. The heights of the columns represent mean±SEM of percentages of 5-6 wells from two independent cultures.
# [12] = test system: lung (SK-MES1) tumor cell line; assay: Cell survival by acid phosphatase activity assay, SK-MES1; type: cell-based, human; settings: 4 days
# Procedure: as §6, §7, §8, §9, §10, §11
# [13] = cisplatin (2.5 μM), carboplatin (25 μM)
compound,measurement,setting,value
"Cc1ccc(O)c(O)c1 [4-MC, 4-methylcatechol]",prevention of vincristine-induced nociception loss (hot plate),[1],did not appear to have any major preventive effect
same,protection against loss of M wave amplitude,[2],protect the loss of M wave amplitude only transiently
same,decrease in axon diameter by vincristine,[3],significantly reduced/prevented the decrease in axon diameter
same,percentage of degenerated fibers in vincristine treated rats,[3],decreased the percentage of degenerated fibers
same,vincristine-induced fiber shrinkage,[3],protected
same,first reaction time versus cisplatin alone,[4],slight but not significant decrease
same,loss of H wave induced by cisplatin,[5],only a delayed and transient effect
same,decrease in SNCV by cisplatin,[5]; only after 5 weeks,transiently prevented the decrease in SNCV
same,cisplatin-induced decrease in fiber or axon diameter,[6],protected against the decrease in cisplatin-induced fiber diameter or axon
same,loss of myelin wall by cisplatin,[6],significant protection against loss of myelin wall
same,time of the first reaction to heat,[7],Reduction of the time of the first reaction to heat
same,cisplatin-induced H wave loss in amplitude,[8]; 4-MC 10 μg/kg IP daily from day 23,reversed the cisplatin-induced H wave loss in amplitude
same,SNCV in cisplatin-treated animals,"[8]; 4-MC 10 μg/kg IP, significant only 2 weeks after treatment initiation",appeared to improve SNCV
same,cisplatin-induced myelin sheath thinning,[9],did not interfere with cisplatin-induced myelin sheath thinning
same,proportion of degenerated fibers,[9]; p>0.05,slight but not significant reduction
same,prevention of H-wave amplitude reduction by taxol,[10]; 4-MC 10 μg/kg daily i.p.,not significant
same,H wave latency under taxol,"[10]; 4-MC 10 μg/kg daily i.p., weeks 3, 5, 6 and 7",improvement in H wave latency
N.N.O=C([O-])C1(C(=O)[O-])CCC1.[Pt+2] [carboplatin],decrease in cell survival versus control,[11]; [13],about 50%
same,decrease in cell survival versus control,[12]; [13],about 50%
CC(=O)O[C@H]1C(=O)[C@@]2(C)[C@H]([C@H](OC(=O)c3ccccc3)[C@]3(O)C[C@H](OC(=O)[C@H](O)[C@@H](NC(=O)c4ccccc4)c4ccccc4)C(C)=C1C3(C)C)[C@]1(OC(C)=O)CO[C@@H]1C[C@@H]2O [taxol],SNCV versus non-treated control,"[10]; taxol alone, 3 weeks",significantly slower
same,H wave latency,"[10]; taxol alone, 3 weeks after taxol treatment",significant increase
same,H wave latency,"[10]; taxol alone, 6 weeks after taxol treatment",dramatically increased
same,decrease in cell survival,[11]; taxol 30 nM,about 55%
same,decrease of cell survival,"[12]; taxol, 'this concentration' (30 nM)",about 70%
